Patent US12378500B2, “Liquid laundry product comprising a fragrance composition comprising isopulegol” (TAKASAGO INTERNATIONAL CORPORATION, priority 2016, dated 2025)

System: human brain
Assay: CNV (Contingent Negative Variation) method, inhalation of fragrance compositions by a panel of subjects
Assay type: in vivo
Details: 2 wt % isopulegol added to fragrance A; fragrance A as control; inhaled; panel of 7 subjects; FIG. 3
Description: The stimulating effect of isopulegol was determined by the CNV (Contingent Negative Variation) method as described below and briefly summarized in FIGS. 1 and 2.
The CNV was measured using a digital electroencephalograph BIOSEMi (registered trademark). Electrodes for the CNV measurement were placed at Fp1, Fp2, F4, Fz, F3, T7, C3, Cz, C4, T8, P4, Pz, P3, O1, Oz, O2 according to the international 10-20 system, electrodes for ear lobes were set to indifferent electrodes, and brain waves were recorded at a time constant of 5.0 seconds referenced to the linked earlobes. In order to check artifacts of eye movement to a brain wave, vertical and horizontal movements of the left eye were also recorded.
Confirmation of a stimulative effect of a sample was conducted by steps of delivering a warning stimulus S1 (tone of 60-65 dB), followed 2300 ms later by a second stimulus S2 (light source). Test fragrance compositions were inhaled from jars disposed a few (e.g. 15-20) centimetres from the subjects' nose during each period of acquisition. […] The base line was determined from an average voltage of a brain wave in a time period of 500 ms before S1. The evaluation of the CNV waveform was conducted according to the method of Tori et al. (op. cit.), in which CNV was evaluated by the area (unit: ms×[…]) of an early component between 400 ms to 1,000 ms after the warning sound stimulus (S1).

C=C(C)[C@@H]1CC[C@@H](C)C[C@H]1O (racemic) [isopulegol]
CNV activity (area under the curve) of fragrance A + isopulegol versus fragrance A alone: enhances the CNV activity of fragrance A
